Like-named read-outs stand apart in the source and are kept apart here.
Experiments:
[1] = system: M. tuberculosis; experiment: microbe, parasite or virus in culture; assay type: cell-based; conditions: for IC50: read-out: IC50 (μM) M.tb/REMA; for IC90: read-out: IC90 (μM) M.tb/REMA
[2] = system: zebrafish embryos; conditions: in vivo
[3] = system: M. tuberculosis H37Rv WT; experiment: THP-1 macrophage infection study, CFU counting; assay type: cell-based, Mycobacterium tuberculosis; conditions: THP-1 macrophages, MOI 1, day 5
[4] = human, microsomes, pH 7.4; for Half-life: 15 μM; for Compound remaining (%): 0.5 h
[5] = in vitro; conditions: human, microsomes, pH 7.4
[6] = system: ESX-5 dependent secretion; assay type: cell-based
[7] = system: M. marinum; assay type: cell-based
[8] = system: PE_PGRS and EsxN (ESX-5 dependent secretion); assay type: cell-based
[9] = system: EsxA (ESX-1 dependent secretion); assay type: cell-based
[10] = system: M. avium; experiment: Cell viability assay (REMA), susceptibility of bacterial cultures; assay type: cell-based; conditions: tested up to 80 μM
[11] = system: M. interjectum; experiment: as above; assay type: cell-based; conditions: tested up to 80 μM
[12] = system: M. kansasii; experiment: as above; assay type: cell-based; conditions: tested up to 80 μM
[13] = system: M. bovis (BCG); assay type: cell-based
[14] = system: fast-growing mycobacteria; experiment: Cell viability assay (REMA), susceptibility of bacterial cultures; assay type: cell-based; conditions: up to 80 μM
[15] = system: Escherichia coli; experiment: as above; assay type: cell-based; conditions: highest tested amount (80 μM)
[16] = system: Bacillus subtilis; experiment: as above; assay type: cell-based; conditions: highest tested amount (80 μM)
[17] = system: M. marinum overexpressing ethA; assay type: cell-based
[18] = system: M. smegmatis overexpressing ethA; assay type: cell-based
[19] = Mycobacterium tuberculosis, 168 h
[20] = Mycobacterium tuberculosis, 168 h, replicating M. tuberculosis, seven days, 37° C.
[21] = Mycobacterium tuberculosis, concentration that reduced bacterial viability to lower than 10%

## COc1ccc(-c2nsc(SCC(=O)NCC3CCCC3)n2)cc1 [Compound I-38, reference compound]
[1]; [19]
  IC50: 0.447 µM
[1]; Mycobacterium tuberculosis
  IC90: 1.25 µM
[2]
  toxicity (survival of zebra fish embryos scored by heartbeat): somewhat less toxic than I-40 and I-41

## Cc1cccc(-c2nsc(SCC(=O)N3CCCCC3)n2)c1 [Compound I-18, reference compound]
[1]; [20]
  IC50: 0.251 µM
[1]; [21]
  IC90: 2.5 µM

## COc1ccc(-c2nsc(SCC(=O)NC(C)(C)C)n2)cc1 [Compound I-32]
[1]; [20]
  IC50: 0.109 µM
[1]; [21]
  IC90: > 10 µM

## O=C(CSc1nc(-c2ccccc2)ns1)NC1CCCC1 [Compound I-5]
[1]
  IC50: 0.256 µM
  IC90: 0.63 µM
[1]; tested on M. tuberculosis
  increase of activity as compared to compound I-12: two-fold
[3]
  concentration required to reduce the bacterial load below the initial amount on day 0: 10 µM
  concentration with significant decrease of bacterial load as compared to the DMSO control: 3 µM
[4]
  Half-life: 1.18 h
  Compound remaining (%): 75%
[5]
  CLint scaled at 15 μM: 8.78 mL/min/kg

## Cc1cccc(-c2nsc(SCC(=O)NCC3CCCO3)n2)c1 (stereo not drawn) [Compound I-39, reference compound]
[1]; [19]
  IC50: 0.248 µM
[1]; Mycobacterium tuberculosis
  IC90: 0.63 µM
[2]
  toxicity (survival of zebra fish embryos scored by heartbeat): least toxic of the comparative compounds

## COc1ccc(-c2nsc(SCC(=O)NC3CC3)n2)cc1 [Compound I-13]
[1]; [20]
  IC50: 0.478 µM
[1]; [21]
  IC90: 1.25 µM

## CCNC(=O)CSc1nc(-c2ccccc2)ns1 [Compound I-10]
[1]; [20]
  IC50: 0.383 µM
[1]; [21]
  IC90: 1.25 µM

## COc1ccc(-c2nsc(SCC(=O)NCc3ccccc3)n2)cc1 [Compound I-30]
[1]; [20]
  IC50: 2.42 µM
[1]; [21]
  IC90: 10 µM

## COc1ccc(-c2nsc(SCC(=O)NC3CCCC3)n2)cc1 [Compound I-12]
[1]; [19]
  IC50: 0.535 µM
[1]; Mycobacterium tuberculosis
  IC90: 1.25 µM
[1]; tested up to 80 μM
  susceptibility (REMA): susceptible
[6]
  ESX-5 activity, % of the DMSO treated control: 27%
[7]
  increase of MIC towards M. marinum when mspA was over-produced: 2 fold
  more compound required to significantly reduce viability when mspA was over-produced: 4 fold
  reduction in bacterial viability (REMA): 77%
  susceptibility (REMA): susceptible
[8]
  concentration at which reduction of ESX-5 substrates EsxN and PE_PGRS proteins was observed: 10 µM
[9]
  secretion of EsxA: reduced secretion of EsxA
[3]
  concentration required to reduce the bacterial load below the initial amount on day 0: 10 µM
  concentration with significant decrease of bacterial load as compared to the DMSO control: 3 µM
[10]
  susceptibility (REMA): resistant
[11]
  susceptibility (REMA): resistant
[12]
  susceptibility (REMA): susceptible
[13]
  susceptibility (REMA): susceptible
[14]
  susceptibility (REMA): resistant
[15]
  susceptibility (REMA): resistant
[16]
  susceptibility (REMA): resistant
[17]
  increased susceptibility as compared to the parent WT strain: at least 4 fold
[18]
  susceptibility on overexpression of ethA: did not render this strain susceptible

## COc1ccc(-c2nsc(SCC(=O)NCCC(F)(F)F)n2)cc1 [Compound I-34]
[1]; [20]
  IC50: 0.038 µM
[1]; [21]
  IC90: 0.31 µM

## O=C(COc1nc(-c2ccccc2)ns1)NC1CCCC1 [Compound I-33]
[1]; [20]
  IC50: 7.85 µM
[1]; [21]
  IC90: 10 µM
[4]
  Half-life: 1.03 h
  Compound remaining (%): 72%
[5]
  CLint scaled at 15 μM: 10.1 mL/min/kg

## Cc1cccc(-c2nsc(SCC(=O)NC3CCCC3)n2)c1 [Compound I-16]
[1]; [20]
  IC50: 0.121 µM
[1]; [21]
  IC90: 2.5 µM

## CCCCCNC(=O)CSc1nc(-c2ccc(OC)cc2)ns1 [Compound I-2]
[1]; [20]
  IC50: 0.098 µM
[1]; [21]
  IC90: 0.31 µM

## C#CCNC(=O)CSc1nc(-c2ccc(OC)cc2)ns1 [Compound I-7]
[1]; [20]
  IC50: 0.306 µM
[1]; [21]
  IC90: 0.63 µM

## O=C(CSc1nc(-c2ccccc2)no1)NC1CCCC1 [Compound I-28]
[1]; [19]
  IC50: 2.11 µM
[1]; Mycobacterium tuberculosis
  IC90: 5 µM

## COc1ccc(-c2nsc(SCC(=O)NC3CCCCC3)n2)cc1 [Compound I-22]
[1]; [20]
  IC50: 0.663 µM
[1]; [21]
  IC90: 2.5 µM

## COc1ccc(-c2nsc(SCC(=O)Nc3ccccn3)n2)cc1 [Compound I-20]
[1]; [20]
  IC50: 0.502 µM
[1]; [21]
  IC90: 2.5 µM

## COc1ccc(-c2nsc(SCC(=O)OC3CCCC3)n2)cc1 [Compound I-25]
[1]; [20]
  IC50: 0.526 µM
[1]; [21]
  IC90: 5 µM

## COc1ccc(-c2nsc(SCC(=O)N3CCCCC3)n2)cc1 [Compound I-11]
[1]; [20]
  IC50: 0.531 µM
[1]; [21]
  IC90: 1.25 µM

## CCCNC(=O)CSc1nc(-c2ccc(Cl)cc2)ns1 [Compound I-36]
[1]; [20]
  IC50: 0.058 µM
[1]; [21]
  IC90: 0.16 µM
[4]
  Half-life: 0.72 h
  Compound remaining (%): 62%
[5]
  CLint scaled at 15 μM: 14.4 mL/min/kg

## COc1ccc(-c2nsc(SCC(=O)NC(C)C)n2)cc1 [Compound I-9]
[1]; [20]
  IC50: 0.152 µM
[1]; [21]
  IC90: 1.25 µM

From patent US12472166B2, “Inhibition of mycobacterial type VII secretion” (priority 2019, dated 2025)
